Experimental data: patent US8586291B2 (priority 2001, dated 2013)

Assays:
v-Src versus c-Src = details: cited from earlier work
Ba/F3 P210 E255K = experiment: Growth inhibition, viable cells by trypan blue dye exclusion; assay type: cell-based, murine; details: Mus musculus, BaF3, concentration reducing number of viable cells by 50%, read-out: MEAN IC50 ± S.D.
T315I BCR-ABL = experiment: BCR-ABL protein degradation, anti-ABL western blot in Ba/F3 cells; details: 24 hours
[1] = tested on: Ba/F3 + IL-3 (BCR-ABL-negative parental cells); experiment: Growth inhibition, viable cells by trypan blue dye exclusion; assay type: cell-based, murine; details: Mus musculus, BaF3, concentration reducing number of viable cells by 50%, read-out: MEAN IC50 ± S.D.
E255K BCR-ABL = experiment: BCR-ABL protein degradation, anti-ABL western blot in Ba/F3 cells; details: 24 hours
Ba/F3 P210 WT = experiment: Growth inhibition, viable cells by trypan blue dye exclusion; assay type: cell-based, murine; details: Mus musculus, BaF3, concentration reducing number of viable cells by 50%, read-out: MEAN IC50 ± S.D.
wild-type BCR-ABL = experiment: BCR-ABL protein degradation, anti-ABL western blot in Ba/F3 cells; details: 24 hours
Ba/F3 P210 T315I = experiment: Growth inhibition, viable cells by trypan blue dye exclusion; assay type: cell-based, murine; details: Mus musculus, BaF3, concentration reducing number of viable cells by 50%, read-out: MEAN IC50 ± S.D.
[2] = tested on: wild-type BCR-ABL-expressing Ba/F3 cells; experiment: CRKL phosphorylation, western blot and densitometry; assay type: cell-based, murine; details: 24 hours
[3] = tested on: T315I BCR-ABL-expressing Ba/F3 cells; experiment: as above; assay type: cell-based, murine; details: 24 hours
[4] = tested on: E255K BCR-ABL-expressing Ba/F3 cells; experiment: as above; assay type: cell-based, murine; details: 24 hours

Cc1ccc(-c2nn(C(C)(C)C)c3ncnc(N)c23)cc1 [PP1]
fold resistance of v-Src versus c-Src to kinase inhibition (v-Src versus c-Src): approximately 50 fold

COC1=C2C[C@@H](C)C[C@H](OC)[C@H](O)[C@@H](C)/C=C(\C)[C@H](OC(N)=O)[C@@H](OC)/C=C\C=C(/C)C(=O)NC(=CC1=O)C2=O [GA, Geldanamycin]
IC50 (Ba/F3 P210 E255K): 2.6 ± 2.4 µM
concentration at which BCR-ABL protein levels decrease (T315I BCR-ABL): 0.5 µM
IC50 [1]: 27.3 ± 14.1 µM
concentration at which BCR-ABL protein levels decrease (E255K BCR-ABL): 0.5 µM
IC50 (Ba/F3 P210 WT): 4.9 ± 1.6 µM
concentration at which BCR-ABL protein levels decrease (wild-type BCR-ABL): 1.0 µM
IC50 (Ba/F3 P210 T315I): 1.8 ± 2.1 µM

C=CCNC1=C2C[C@@H](C)C[C@H](OC)[C@H](O)[C@@H](C)/C=C(\C)[C@H](OC(N)=O)[C@@H](OC)/C=C\C=C(/C)C(=O)NC(=CC1=O)C2=O [17-AAG, 17-allylaminogeldanamycin]
concentration at which significant changes in CRKL phosphorylation were observed [2]: 5.0 µM
IC50 (Ba/F3 P210 E255K): 1 ± 0.2 µM
concentration at which BCR-ABL protein levels decrease (T315I BCR-ABL): 0.5 µM
concentration at which virtually no BCR-ABL protein was detectable (T315I BCR-ABL): 1.0 µM
IC50 [1]: 12.4 ± 0.3 µM
concentration at which BCR-ABL protein levels decrease (E255K BCR-ABL): 0.5 µM
concentration at which virtually no BCR-ABL protein was detectable (E255K BCR-ABL): 1.0 µM
concentration at which CRKL phosphorylation was significantly inhibited [3]: 0.5 µM
concentration at which CRKL phosphorylation was significantly inhibited [4]: 0.5 µM
IC50 (Ba/F3 P210 WT): 5.2 ± 2.4 µM
concentration at which BCR-ABL protein levels decrease (wild-type BCR-ABL): 0.5 to 1.0 µM
IC50 (Ba/F3 P210 T315I): 2.3 ± 0.4 µM
